This is an account of results in ChEMBL document CHEMBL1149930, “3-Hydroxy-19-nor-17-pregna-1,3,5(10)-triene-21,17-carbolactone as inhibitor of 17-hydroxysteroid dehydrogenase type 2” (Bioorg Med Chem Lett, 1994).

In assay [1] the target is T1, 17-beta-hydroxysteroid dehydrogenase type 2 (Homo sapiens, UniProt P37059).
T1 sequence (P37059 whole entry): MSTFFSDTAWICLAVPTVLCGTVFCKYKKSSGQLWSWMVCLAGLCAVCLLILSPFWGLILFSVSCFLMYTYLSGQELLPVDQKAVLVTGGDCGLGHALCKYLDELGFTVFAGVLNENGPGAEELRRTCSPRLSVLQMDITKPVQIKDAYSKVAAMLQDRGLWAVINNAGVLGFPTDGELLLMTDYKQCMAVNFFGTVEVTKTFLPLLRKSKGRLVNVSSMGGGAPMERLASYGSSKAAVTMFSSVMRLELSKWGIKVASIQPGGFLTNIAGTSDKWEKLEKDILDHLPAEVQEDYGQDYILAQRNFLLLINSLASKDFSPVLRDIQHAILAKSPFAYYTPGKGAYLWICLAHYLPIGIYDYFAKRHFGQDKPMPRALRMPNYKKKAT
Nature of the assay: Inhibitory activity against human placenta 17-beta-hydroxysteroid dehydrogenase type 2 (17-beta-HSD type 2).

Assay [2] addresses T1, 17-beta-hydroxysteroid dehydrogenase type 2. Nature of the assay: Inhibitory constant against human placenta 17-beta-hydroxysteroid dehydrogenase type 2 (17-beta-HSD type 2).

In turn, `C[C@]12CCC3C4=CCC(=O)C=C4CCC3C1CC[C@@]21CCC(=O)O1` (stereo partly drawn) gave a half-maximal inhibitory concentration (IC50) in assay [1] of 1410 nM.

`C[C@]12CC[C@@H]3c4ccc(O)cc4CC[C@H]3[C@@H]1CC[C@@]21CCC(=O)O1` had a half-inhibitory concentration (IC50) in assay [1] of 270 nM. In assay [2], this molecule had a Ki of 250 nM.
